Where two headings read alike, the source gives them in different places.
Experiments:
Experiment in all cases: KINOMEscan
Assay type in all cases: binding
[1] = target: MLK1 (Homo sapiens (Human), UniProt P80192); conditions: MLK1, 10000 nM; read-out: Percent Control
[2] = target: MKK7 (Homo sapiens (Human), UniProt O14733); conditions: MKK7, 10000 nM; read-out: Percent Control
[3] = target: GSK3B (Homo sapiens (Human), UniProt P49841); conditions: 10000 nM, read-out: Percent Control
[4] = target: LRRK2 (Homo sapiens (Human), UniProt Q5S007); conditions: LRRK2, 10000 nM; read-out: Percent Control
[5] = target: MEK5 (Homo sapiens (Human), UniProt Q13163); conditions: MEK5, 10000 nM; read-out: Percent Control
[6] = target: KIT(V559D) (Homo sapiens (Human), UniProt P10721, V559D); conditions: 10000 nM, read-out: Percent Control
[7] = target: MEK3 (Homo sapiens (Human), UniProt P46734); conditions: MEK3, 10000 nM; read-out: Percent Control
[8] = target: EIF2AK1 (Homo sapiens (Human), UniProt Q9BQI3); conditions: EIF2AK1, 10000 nM; read-out: Percent Control
[9] = target: PAK6 (Homo sapiens (Human), UniProt Q9NQU5); conditions: PAK6, 10000 nM; read-out: Percent Control
[10] = target: OSR1 (Homo sapiens (Human), UniProt O95747); conditions: OSR1, 10000 nM; read-out: Percent Control
Chain of OSR1 (O95747 whole entry): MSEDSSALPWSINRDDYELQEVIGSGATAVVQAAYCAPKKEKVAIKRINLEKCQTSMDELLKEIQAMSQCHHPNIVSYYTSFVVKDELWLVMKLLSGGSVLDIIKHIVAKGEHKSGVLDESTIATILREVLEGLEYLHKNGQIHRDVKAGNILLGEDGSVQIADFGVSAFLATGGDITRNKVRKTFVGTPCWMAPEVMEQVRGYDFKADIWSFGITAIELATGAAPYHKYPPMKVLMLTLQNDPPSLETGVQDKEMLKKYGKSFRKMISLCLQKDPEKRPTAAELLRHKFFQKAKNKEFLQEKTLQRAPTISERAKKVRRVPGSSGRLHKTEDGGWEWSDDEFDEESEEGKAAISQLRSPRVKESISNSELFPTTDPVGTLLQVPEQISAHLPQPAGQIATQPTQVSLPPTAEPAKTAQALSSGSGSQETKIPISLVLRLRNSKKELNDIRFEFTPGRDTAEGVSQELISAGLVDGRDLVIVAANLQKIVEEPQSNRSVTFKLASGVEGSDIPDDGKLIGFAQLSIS

[11] = target: INSRR (Homo sapiens (Human), UniProt P14616); conditions: 10000 nM, read-out: Percent Control
[12] = target: PCTK2 (Homo sapiens (Human), UniProt Q00537); conditions: PCTK2, 10000 nM; read-out: Percent Control
[13] = target: HIPK2 (Homo sapiens (Human), UniProt Q9H2X6); conditions: HIPK2, 10000 nM; read-out: Percent Control
Chain of HIPK2 (Q9H2X6 whole entry): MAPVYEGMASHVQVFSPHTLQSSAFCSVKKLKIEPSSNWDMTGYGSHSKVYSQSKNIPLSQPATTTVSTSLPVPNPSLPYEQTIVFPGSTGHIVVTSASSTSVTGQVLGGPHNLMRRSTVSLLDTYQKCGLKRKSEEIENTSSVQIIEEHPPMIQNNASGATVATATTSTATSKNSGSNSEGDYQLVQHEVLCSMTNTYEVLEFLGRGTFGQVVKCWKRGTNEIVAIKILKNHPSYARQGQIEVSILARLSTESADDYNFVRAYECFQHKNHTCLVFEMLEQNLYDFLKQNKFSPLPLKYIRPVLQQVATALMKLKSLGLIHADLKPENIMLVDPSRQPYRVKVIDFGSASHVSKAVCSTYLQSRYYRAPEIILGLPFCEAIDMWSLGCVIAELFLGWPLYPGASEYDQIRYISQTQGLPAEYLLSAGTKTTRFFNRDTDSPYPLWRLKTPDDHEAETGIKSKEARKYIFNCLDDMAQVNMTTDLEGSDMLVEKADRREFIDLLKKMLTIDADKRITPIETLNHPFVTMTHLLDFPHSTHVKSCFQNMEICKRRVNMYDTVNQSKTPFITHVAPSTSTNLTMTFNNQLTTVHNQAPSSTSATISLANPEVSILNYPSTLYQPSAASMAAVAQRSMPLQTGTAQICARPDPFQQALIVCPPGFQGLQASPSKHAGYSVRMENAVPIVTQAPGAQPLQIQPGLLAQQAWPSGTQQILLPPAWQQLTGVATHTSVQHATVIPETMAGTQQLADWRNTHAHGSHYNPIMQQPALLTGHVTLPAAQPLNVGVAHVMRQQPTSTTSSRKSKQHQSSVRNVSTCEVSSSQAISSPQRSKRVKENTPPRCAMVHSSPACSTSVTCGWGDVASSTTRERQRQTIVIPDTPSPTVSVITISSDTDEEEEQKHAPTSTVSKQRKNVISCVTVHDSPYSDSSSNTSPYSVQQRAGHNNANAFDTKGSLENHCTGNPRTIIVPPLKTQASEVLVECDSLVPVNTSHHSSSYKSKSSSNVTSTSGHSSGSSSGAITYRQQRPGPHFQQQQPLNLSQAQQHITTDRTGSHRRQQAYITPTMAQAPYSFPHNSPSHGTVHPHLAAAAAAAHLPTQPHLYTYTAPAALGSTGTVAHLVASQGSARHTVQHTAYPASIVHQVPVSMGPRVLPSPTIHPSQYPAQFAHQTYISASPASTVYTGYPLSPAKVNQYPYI

[14] = target: CAMK2G (Homo sapiens (Human), UniProt Q13555); conditions: 10000 nM, read-out: Percent Control
[15] = target: MST1 (Homo sapiens (Human), UniProt Q13043); conditions: MST1, 10000 nM; read-out: Percent Control
[16] = target: EPHB6 (Homo sapiens (Human), UniProt O15197); conditions: EPHB6, 10000 nM; read-out: Percent Control
[17] = target: TYRO3 (Homo sapiens (Human), UniProt Q06418); conditions: TYRO3, 10000 nM; read-out: Percent Control
[18] = target: SIK (Homo sapiens (Human), UniProt P57059); conditions: 10000 nM, read-out: Percent Control
Chain of SIK (P57059 whole entry): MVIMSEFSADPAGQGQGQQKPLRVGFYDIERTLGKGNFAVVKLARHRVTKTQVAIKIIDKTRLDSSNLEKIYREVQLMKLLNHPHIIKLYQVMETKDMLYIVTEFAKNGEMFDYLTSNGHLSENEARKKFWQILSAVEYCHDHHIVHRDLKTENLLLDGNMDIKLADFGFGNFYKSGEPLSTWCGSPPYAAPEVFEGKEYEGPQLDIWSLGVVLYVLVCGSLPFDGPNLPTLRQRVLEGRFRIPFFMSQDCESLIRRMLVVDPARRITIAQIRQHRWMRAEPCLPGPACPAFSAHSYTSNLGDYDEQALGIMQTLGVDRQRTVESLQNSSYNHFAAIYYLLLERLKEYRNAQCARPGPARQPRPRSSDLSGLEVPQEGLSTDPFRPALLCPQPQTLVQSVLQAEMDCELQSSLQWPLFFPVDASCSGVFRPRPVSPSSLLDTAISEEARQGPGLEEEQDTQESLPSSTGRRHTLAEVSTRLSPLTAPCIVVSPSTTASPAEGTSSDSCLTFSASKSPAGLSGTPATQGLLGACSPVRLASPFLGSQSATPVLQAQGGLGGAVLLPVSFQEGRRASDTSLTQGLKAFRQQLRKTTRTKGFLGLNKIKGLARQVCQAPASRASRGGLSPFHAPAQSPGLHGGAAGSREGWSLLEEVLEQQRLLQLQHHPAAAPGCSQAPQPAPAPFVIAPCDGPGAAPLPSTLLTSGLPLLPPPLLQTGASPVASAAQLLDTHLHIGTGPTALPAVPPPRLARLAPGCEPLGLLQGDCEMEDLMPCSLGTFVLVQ

[19] = target: IGF1R (Homo sapiens (Human), UniProt P08069); conditions: 10000 nM, read-out: Percent Control
[20] = target: AXL (Homo sapiens (Human), UniProt P30530); conditions: 10000 nM, read-out: Percent Control
[21] = target: PFTAIRE2 (Homo sapiens (Human), UniProt Q96Q40); conditions: PFTAIRE2, 10000 nM; read-out: Percent Control
Chain of PFTAIRE2 (Q96Q40 whole entry): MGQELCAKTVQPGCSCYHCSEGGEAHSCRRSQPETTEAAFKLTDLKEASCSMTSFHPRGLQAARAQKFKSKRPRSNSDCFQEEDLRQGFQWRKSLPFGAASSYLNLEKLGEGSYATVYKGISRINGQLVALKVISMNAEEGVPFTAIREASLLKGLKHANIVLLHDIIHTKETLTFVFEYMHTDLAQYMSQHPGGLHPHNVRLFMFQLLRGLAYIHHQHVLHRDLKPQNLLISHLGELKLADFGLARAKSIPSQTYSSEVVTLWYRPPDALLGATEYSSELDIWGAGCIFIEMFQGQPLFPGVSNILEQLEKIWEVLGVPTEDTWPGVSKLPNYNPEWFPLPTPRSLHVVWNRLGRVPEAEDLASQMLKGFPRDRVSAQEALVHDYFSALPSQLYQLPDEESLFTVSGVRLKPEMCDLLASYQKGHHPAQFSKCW

[22] = target: FLT3(D835V) (Homo sapiens (Human), UniProt P36888, D835V); conditions: 10000 nM, read-out: Percent Control
[23] = target: ABL1(F317I)-nonphosphorylated (Homo sapiens (Human), UniProt P00519, F317I); conditions: 10000 nM, read-out: Percent Control
[24] = target: MST1R (Homo sapiens (Human), UniProt Q04912); conditions: 10000 nM, read-out: Percent Control
[25] = target: SGK2 (Homo sapiens (Human), UniProt Q9HBY8); conditions: SGK2, 10000 nM; read-out: Percent Control
Chain of SGK2 (Q9HBY8 whole entry): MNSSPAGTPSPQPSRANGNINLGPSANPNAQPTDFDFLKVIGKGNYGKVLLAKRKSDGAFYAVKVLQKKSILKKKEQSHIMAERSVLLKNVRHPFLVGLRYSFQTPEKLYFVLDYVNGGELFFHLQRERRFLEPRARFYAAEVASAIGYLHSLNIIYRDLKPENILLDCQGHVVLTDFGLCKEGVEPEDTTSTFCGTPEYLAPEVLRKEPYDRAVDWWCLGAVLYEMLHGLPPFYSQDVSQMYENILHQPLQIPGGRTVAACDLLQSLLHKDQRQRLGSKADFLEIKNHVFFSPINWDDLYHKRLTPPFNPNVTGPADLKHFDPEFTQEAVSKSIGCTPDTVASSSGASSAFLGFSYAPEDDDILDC

[26] = target: INSR (Homo sapiens (Human), UniProt P06213); conditions: 10000 nM, read-out: Percent Control
[27] = target: EGFR(G719S) (Homo sapiens (Human), UniProt P00533, G719S); conditions: 10000 nM, read-out: Percent Control
Chain of EGFR(G719S) (P00533 25-1210 G719S): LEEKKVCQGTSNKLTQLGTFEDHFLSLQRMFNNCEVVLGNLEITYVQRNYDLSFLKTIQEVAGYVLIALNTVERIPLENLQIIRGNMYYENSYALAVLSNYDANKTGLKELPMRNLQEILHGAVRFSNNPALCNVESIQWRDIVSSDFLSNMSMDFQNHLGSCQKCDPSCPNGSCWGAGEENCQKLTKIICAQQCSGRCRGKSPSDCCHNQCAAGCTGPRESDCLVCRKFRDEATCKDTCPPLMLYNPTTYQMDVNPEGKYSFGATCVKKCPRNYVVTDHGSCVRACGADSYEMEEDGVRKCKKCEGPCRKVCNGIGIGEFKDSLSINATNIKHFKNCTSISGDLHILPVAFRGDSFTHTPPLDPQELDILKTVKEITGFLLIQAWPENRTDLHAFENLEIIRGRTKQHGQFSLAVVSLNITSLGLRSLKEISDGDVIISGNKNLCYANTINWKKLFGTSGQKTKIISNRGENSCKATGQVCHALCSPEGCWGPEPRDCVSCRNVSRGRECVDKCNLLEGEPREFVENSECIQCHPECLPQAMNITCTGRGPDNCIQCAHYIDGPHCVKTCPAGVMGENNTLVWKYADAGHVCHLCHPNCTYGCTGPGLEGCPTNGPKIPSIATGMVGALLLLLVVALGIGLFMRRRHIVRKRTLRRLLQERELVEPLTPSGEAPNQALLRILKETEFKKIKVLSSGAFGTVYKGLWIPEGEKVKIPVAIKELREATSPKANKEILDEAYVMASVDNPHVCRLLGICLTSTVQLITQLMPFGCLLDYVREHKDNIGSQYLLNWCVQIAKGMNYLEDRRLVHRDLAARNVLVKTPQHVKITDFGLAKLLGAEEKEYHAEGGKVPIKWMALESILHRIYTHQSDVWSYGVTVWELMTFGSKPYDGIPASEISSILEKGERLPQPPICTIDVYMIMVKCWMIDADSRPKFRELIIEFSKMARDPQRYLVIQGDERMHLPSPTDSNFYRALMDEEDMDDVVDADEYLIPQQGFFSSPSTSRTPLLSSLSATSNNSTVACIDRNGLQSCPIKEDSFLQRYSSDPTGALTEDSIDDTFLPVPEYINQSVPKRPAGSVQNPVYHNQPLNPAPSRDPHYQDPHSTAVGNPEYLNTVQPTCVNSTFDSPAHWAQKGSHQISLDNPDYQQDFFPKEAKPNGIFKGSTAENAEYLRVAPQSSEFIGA

[28] = target: PYK2 (Homo sapiens (Human), UniProt Q14289); conditions: PYK2, 10000 nM; read-out: Percent Control
[29] = target: ROCK1 (Homo sapiens (Human), UniProt Q13464); conditions: ROCK1, 10000 nM; read-out: Percent Control
[30] = target: RIOK3 (Homo sapiens (Human), UniProt O14730); conditions: RIOK3, 10000 nM; read-out: Percent Control
[31] = target: MRCKB (Homo sapiens (Human), UniProt Q9Y5S2); conditions: 10000 nM, read-out: Percent Control
[32] = target: PRKR (Homo sapiens (Human), UniProt P19525); conditions: 10000 nM, read-out: Percent Control
[33] = target: PKNB(M. tuberculosis) (Mycobacterium tuberculosis (strain ATCC 25618 / H37Rv), UniProt P9WI81); conditions: read-out: Percent Control
[34] = target: PIP5K2B (Homo sapiens (Human), UniProt P78356); conditions: 10000 nM, read-out: Percent Control

Chain of GSK3B (P49841 whole entry): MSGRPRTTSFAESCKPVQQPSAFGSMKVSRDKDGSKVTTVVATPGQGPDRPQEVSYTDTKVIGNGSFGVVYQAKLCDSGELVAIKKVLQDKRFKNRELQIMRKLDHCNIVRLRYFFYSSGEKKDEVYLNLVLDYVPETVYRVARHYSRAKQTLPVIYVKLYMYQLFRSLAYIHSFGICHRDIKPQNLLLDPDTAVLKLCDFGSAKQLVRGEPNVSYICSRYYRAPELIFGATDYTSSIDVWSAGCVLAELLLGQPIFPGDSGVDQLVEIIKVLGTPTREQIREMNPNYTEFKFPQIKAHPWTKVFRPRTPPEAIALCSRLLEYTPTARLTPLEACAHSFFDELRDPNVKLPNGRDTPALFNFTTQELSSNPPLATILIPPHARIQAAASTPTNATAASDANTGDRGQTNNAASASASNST

Row | Structure (SMILES) | remaining binding at 10 µM [1] | remaining binding at 10 µM [2] | remaining binding at 10 µM [3] | remaining binding at 10 µM [4] | remaining binding at 10 µM [5] | remaining binding at 10 µM [6] | remaining binding at 10 µM [7] | remaining binding at 10 µM [8] | remaining binding at 10 µM [9] | remaining binding at 10 µM [10] | remaining binding at 10 µM [11] | remaining binding at 10 µM [12] | remaining binding at 10 µM [13] | remaining binding at 10 µM [14] | remaining binding at 10 µM [15] | remaining binding at 10 µM [16] | remaining binding at 10 µM [17] | remaining binding at 10 µM [18] | remaining binding at 10 µM [19] | remaining binding at 10 µM [20] | other results
1 | COc1cc(N2CCC(N3CCN(C)CC3)CC2)ccc1Nc1ncc2c(n1)N(C)c1sc(C)nc1C(=O)N2 [Compound 3, 6-((2-methoxy-4-(4-(4-methylpiperazin-1-yl)piperidin-1-yl)phenyl)amino)-2,4-dimethyl-4,9-dihydro-10H-pyrimido[5,4-b]thiazolo[5,4-e][1,4]diazepin-10-one] | 94% | 100% | 95% | 98% | 22% | 56% | 92% | 73% | 97% | 100% | 84% | 76% | 100% | 79% | 89% | 45% | 92% | 69% | 86% | 100% | remaining binding at 10 µM [21]: 86%; remaining binding at 10 µM [22]: 57%; remaining binding at 10 µM [23]: 3.8%; remaining binding at 10 µM [24]: 90%; remaining binding at 10 µM [25]: 99%; remaining binding at 10 µM [26]: 83%; remaining binding at 10 µM [27]: 48%; remaining binding at 10 µM [28]: 41%; remaining binding at 10 µM [29]: 100%; remaining binding at 10 µM [30]: 79%; remaining binding at 10 µM [31]: 100%; remaining binding at 10 µM [32]: 100%; remaining binding at 10 µM [33]: 91%; remaining binding at 10 µM [34]: 76%
2 | COc1cc(N2CCC(N3CCN(C)CC3)CC2)ccc1Nc1ncc2c(n1)N(C)c1sc(C)nc1C(=O)N2C [Compound 5, 6-((2-methoxy-4-(4-(4-methylpiperazin-1-yl)piperidin-1-yl)phenyl)amino)-2,4,9-trimethyl-4,9-dihydro-10H-pyrimido[5,4-b]thiazolo[5,4-e][1,4]diazepin-10-one] | 41% | 100% | 99% | 32% | 100% | 100% | 100% | 100% | 100% | 100% | 22% | 100% | 100% | 97% | 100% | 100% | 88% | 100% | 40% | 97% | remaining binding at 10 µM [21]: 100%; remaining binding at 10 µM [22]: 97%; remaining binding at 10 µM [23]: 48%; remaining binding at 10 µM [24]: 100%; remaining binding at 10 µM [25]: 98%; remaining binding at 10 µM [26]: 40%; remaining binding at 10 µM [27]: 100%; remaining binding at 10 µM [28]: 85%; remaining binding at 10 µM [29]: 100%; remaining binding at 10 µM [30]: 99%; remaining binding at 10 µM [31]: 100%; remaining binding at 10 µM [32]: 65%; remaining binding at 10 µM ([33]; PKNB(M. tuberculosis), 10000 nM): 98%; remaining binding at 10 µM [34]: 39%

Source: patent publication US12365696B2, “Small-molecule focal adhesion kinase (FAK) inhibitors” (DANA-FARBER CANCER INSTITUTE, INC., priority 2019, dated 2025)
